Measurements: patent publication US5906922A, “Delivery of nucleic acids” (Commonwealth Scientific and Industrial Research Organisation, priority 1994, dated 1999)
“Also recorded” adds a separate entry of the source. Where two headings read alike, the source gives them in different places. Where a SMILES comes first, the peptide text is derived from it. The star is where a group is joined. NHC(CH2O-Palmitoyl)3 = CCCCCCCCCCCCCCCC(=O)OCC(COC(=O)CCCCCCCCCCCCCCC)(COC(=O)CCCCCCCCCCCCCCC)N*; X3 = CCCCCCCCCCCCCC(=O)OCC(CO)(CO)N*; X2 = CCCCCCCCCCCC(=O)OCC(CO)(CO)N*

Columns and labels:
CHO cells [1] = assay: Transfection of pSVLCAT, CAT assay, CHO; assay type: cell-based, Chinese Hamster
Protocol: Protocol was the same for Verafectin and Transfectam (see above) with the exception that 0.5 μg of pSVLCAT DNA was used /60 mm dish.
Lipofectamine protocol was according to manufacturer's instructions. 0.5 μg pSVLCAT/60 mm dish. CHO cells seeded 1×10^5 /60 mm dish and adhered overnight in DME/Hams medium with 10% FCS.
Transfectam 5 or 10 μl 1mg/400 μl stock solution.
Lipofectamine 5 or 10 μl 2 mg/ml (mixed formulation 3:1 with DOPE). VerafectinA3 (K3ATP3) and VerafectinG2 (K3G[Glycine]TP2) each at 5, 10 and 15 μl of 2 mM (2.8 and 2.3 mg/ml respectively) stock.
The serum free incubation period in the presence of test agents and DNA was 6 hours, then 1 ml DME/Hams+10% FCS was added. At 24 hrs the medium was changed to 2 ml of fresh DME/Hams+10% FCS until harvest at 48 hrs.
(§1) Cell lines Cos 1 or CHO were transfected with 0.5 μg of pSVLCAT or 2 μg of pPGKlacZ plasmid using a range of concentrations of each transfection compound. The optimal concentration of compound, that is the concentration giving the highest level of CAT at 48 hours or the greatest percentage of lac z (β-galactosidase) staining cells at 24 hours was used to collate data for Table 1. As all compounds were not tested in a single experiment, absolute figures indicating transfection were not used. Rather, symbols are used to indicate the transfection efficiency relative to Lipofectamine (BRL), which was included as a control in all experiments. Table 1 thus indicates the relative efficiencies of a number of compounds in mediating the transfection of at least one cell type.
(§2) All test lipopeptide reagents were originally dissolved at 10 mM in 75% DMSO, and subsequently diluted with water to make a 2 mM stock stored at 4° C. Volumes of 2 mM stock lipopeptide ranging from 2 μl to 15 μl were diluted in 500 μl of DDME. 1 μg of plasmid pSVLCAT was separately diluted in 500 μl of DDME. Solutions were combined for 10-20 min at room temperature before adding to 500 μl of DDME in 60 mm dishes of subconfluent CHO cells (2×10^5 day-1) or Cos 1 cells (5×10^5 day-1); washed free of serum with DDME.
(§3) Cells were incubated for 6 hrs under standard conditions of 37° C. and 5% CO2 for 6 hours. 1.5 ml of DME/Hams+10% FCS (CHO) or DME+10% FCS (Cos 1) was added to the cells for overnight incubation. Fresh DME/Hams+10% FCS or DME+10% FCS was used to replace the medium for a further 24 hours prior to harvest. Cell lysates were prepared and assayed for CAT activity as described above. For Cos 1 cells, culture supernatants were assayed for CAT activity.
a. Using the standard transfection procedure described above, and 1 μg plasmid pSVLCAT, these formulations were tested on CHO cells at a single concentration equivalent to 10 μl of Verafectin A2 (2 mM) per sample and compared to unformulated compound and Lipofectamine in the same cell type. CAT production was assayed 48 hours after transfection.

[2] = Electron microscopy of formulated and unformulated compounds; assay type: physicochemical; settings: negatively stained
Protocol: Solutions of formulated and unformulated compounds were analysed for potential membrane-like structure. In separate experiments the following samples were analysed:
a: Negatively stained samples of formulated compounds K3ATP2:DOPE, DOPE and the unformulated compounds K3C7ATL3 and Lipofectamine.
b: Rotary shadowed samples of K3C7ATL3 and Lipofectamine mixed with two ratios of nucleotide (plasmid).
Stock samples of liposomes at 2 mM, were diluted 1 in 10 with filtered distilled water, and mixed 1:1 with filtered negative stain (Ammonium Molybdate 2%, pH 6.5) and spread onto carbon-formvar coated copper/rhodium 200 mesh electron microscope grids, and examined in a Jeol JEM 100CX electron microscope at 60 kV at magnifications of between 33 k and 100 k.
Ratios of 0.69, and 0.25, of liposome:1 mole DNA nucleotides were diluted in water and mixed for 10 min at room temperature, spread onto carbon-formvar coated grids and rotary metal-shadowed with platinum-palladium (60:40) evaporated at an angle of 7° and examined in the electron microscope at 60 kV at magnifications between 26 k and 66 k.

Cos 1 cells [3] = assay: β-gal microtitre plate transfection assay, Cos 1; assay type: cell-based, African Green Monkey
Excerpt: (§4) For experiment "c", a plasmid pPGKlaczNLS encoding β-galactosidase under the control of the mouse PGK promoter (kind gift from G.Hannan) or pSVGAL which utilises the SV40 early promoter (Sleigh, M. J. and Lockett, T. J. (1985). EMBO J. 4:3831-3837),was transfected. This experiment and assay were modified from Feigner et al J. Biol Chem. 269(4) 2550-2561 1994. This protocol allows the simultaneous assessment of 72 different combinations and concentrations of DNA and test agent in a microtitre tray. […] Cytotoxicity was assessed using alamar blue, and a sample graph is shown for experiment a.
Compounds were tested for their ability to transfect either the CAT or β-gal gene carried on plasmids, and assayed as described above.
(§5) The ratio of [lipid]/[DNA] at which that maximum was achieved is shown. Experiments shown were carried out in Cos 1 cells, as described above. MTS OD is a measure of relative viabilility of the cells exposed to the different agents, a higher value indicates greater cell viability. * These points were taken from a separate experiment and some slight variation between absolute numbers should be expected between experiments.
(§6) Each of these compounds was tested for transfection ability and cytotoxicity on standard cell lines using standard conditions as described above.
(§7) The ratio of [lipid]/[DNA] at which that maximum was achieved is shown in brackets for the two different cell types in the following order; (Cos 1) (CHO). Experiments shown were carried out in Cos 1 cells, as described above. Viability was measured with the dye alamar blue . # Denotes compounds tested in a separate experiment. * Viability in this experiment was determined with MTS. OD is a measure of relative viability of the cells exposed to the different agents, and as with alamar blue, a higher value indicates greater cell viability.

Cos 1 cells [4] = assay type: cell-based, African Green Monkey
Excerpt: (§8) Relative levels of cytotoxicity caused by the different agents were compared during the experiment using the dye "Alamar Blue" (Alamar, Sacramento Calif.).
as §4, §5, §7

CHO cells [5] = assay type: cell-based, Chinese Hamster
Protocol: (LEGEND--FIGS. 7, 8 and 9; none; no agent used with plasmid DNA, rb/blank; reagent blank, number following description of compound indicates no. μl of 2 mM stock (diluted with water). 7b: 100% cell survival was taken from dishes which were "mock transfected" with no DNA or transfection agent. 0% viability was assayed in the absence of cells. Viability was assessed using the dye alamar blue.)
as §8, §7

CHO cells [6] = assay: β-gal microtitre plate transfection assay, CHO; assay type: cell-based, Chinese Hamster; settings: Table 3, CHO; for β-gal (CHO): highest reading of 72 conditions
Excerpt: as §4, §6, §7

Cos 1 cells [7] = assay: Transfection of pSVLCAT, CAT assay, Cos 1; assay type: cell-based, African Green Monkey
Protocol: To test the transfection properties of the lead compound K3ATP3 (VerafectinA3), whole uncut plasmid carrying the gene encoding CAT (chloramphenicol acetyl transferase) under the control of the SV40 late promoter, pSVLCAT (Cameron, F. H. and Jennings, P. A. (1989) PNAS 86, 9139-9143) was mixed with the test agent and put on Cos 1 cells under various conditions. After 48 hours of culture the level of secreted CAT was assayed from the culture medium.
Solution I: 1 μg Plasmid DNA in 500 μl Dulbeccos Modified Eagles Medium (DME)
Solution II: 0-20 μl VerafectinA3 (2.5 mg/ml 25% DMSO) in 500 μl DME, Vortex
Combine solution I and II, vortex briefly and incubate at room temperature for 10 min.
Add mix to washed cells in 60 mm tissue culture dishes (seeded 0.5×10^6 /dish previous day) for 6 hrs at 37° C., 5% C02. Add 2 ml DME+10% FCS for remainder of 48 hrs. Assay CAT levels in tissue culture medium (Sleigh, M. J. (1986) Anal. Biochem. 156.251-256).
a--Compare VerafectinA3 dissolved in DMSO or ethanol.
b--Compare VerafectinA3 on cells 6 hrs to overnight. VerafectinA3 at 10 mg/ml in 100% solvent was diluted to 2.5 mg/ml with water.
Transfection was carried out as for experiment 1. VerafectinA3 was left in contact with the cells for varying times.
Protocol was the same for the Verafectins as described above. Lipofectamine protocol was according to manufacturers instructions. Cos 1 cells were seeded at 5×10^5 /60 mm dish and adhered overnight in DME with 10% FCS.
Solution A: 0.5 μg pSVLCAT/60 mm dish.
Solution B: Lipofectamine 10 and 15 μl 2 mg/ml (mixed formulation 3:1 with DOPE).
OR; VerafectinA3 and VerafectinG2 20 μl 2 mM (2.8 and 2.3 mg/ml respectively) stock.
OR; VerafectinG2 was also tested with an equimolar amount of DOPE. VerafectinG2 and DOPE were mixed in DDME and vortexed for 30 seconds before use. Solutions A and B were combined before overlaying on washed cells.
The serum free incubation period in the presence of test agents and DNA was 6 hrs, then 1 ml DME+10% FCS was added. At 24 hours medium was changed to 2 ml fresh DME+10% FCS until harvest at 48 hrs.
as §1, §2, §3
For transfection of pSVLCAT and subsequent assay of CAT enzyme, experiments "a" and "b" were carried out as described above.

Cos 1 cells [8] = assay type: cell-based, African Green Monkey; remark: listed apart in the source
Protocol: Relative levels of cytotoxicity were also assayed in subsequent experiments using the dye MTS, marketed as Cell titre 96 Aqueous (Promega).
as §5, §7

[9] = Table 2, Cos 1, * separate experiment
[10] = Table 3, Cos 1, highest reading of 72 conditions

SMILES | ratio [lipid]/[DNA] at which maximum was achieved (Cos 1 cells [3]; Table 2, Cos 1) | units β-gal (Cos 1 cells [3]; [9]) | ratio [lipid]/[DNA] at which maximum was achieved (Cos 1 cells [3]; Table 3, Cos 1) | β-gal (Cos 1) (Cos 1 cells [3]; [10]) | Viability (Cos 1) (Cos 1 cells [4]) | Viability (CHO) (CHO cells [5]) | ratio [lipid]/[DNA] at which maximum was achieved (CHO cells [6]) | β-gal (CHO) (CHO cells [6]) | other results
CCCCCCCC/C=C\CCCCCCCC(=O)OC[C@H](COP(=O)(O)OCCN)OC(=O)CCCCCCC/C=C\CCCCCCCC [DOPE, Dioleoyl phosphatidyl ethanolamine, reference compound] |  |  |  |  |  |  |  |  | transfection by DOPE alone (CHO cells [1]; CHO, unformulated or "formulated"): gave no transfection; liposome structure (TEM) [2]: does not form a true liposome; also recorded: did not under the same conditions
CCCCCCCCCCCC(=O)OCC(CO)(CO)NC(=O)[C@H](C)NC(=O)[C@H](CCCCN)NC(=O)[C@H](CCCCN)NC(=O)[C@@H](N)CCCCN [K3ATL1] (H-KKKA-X2) | 0.35 | 1.09 × 10^-5 units | .35 | 1.09 × 10^-5 | 0.104 | 0.072 | 2.77 | 2.99 × 10^-6 | 
CCCCCCCCCCCCCCCC(=O)OCC(COC(=O)CCCCCCCCCCCCCCC)(COC(=O)CCCCCCCCCCCCCCC)NC(=O)[C@H](C)NC(=O)[C@H](CCCCN)NC(=O)[C@H](CCCCN)NC(=O)[C@@H](N)CCCCN [K3ATP3, trilysine alanine tris tripalmitate] (H-KKKA-{NHC(CH2O-Palmitoyl)3}) | 0.69 |  |  | 3.52 × 10^-5 | 0.077 |  |  |  | CAT activity (mean) (CHO cells [1]; "x" peptide experiment a, CHO, 25 μl lysate, 20 min assay at 37° C., optimal level): 6237 cpm; mean level of CAT activity (CHO cells [1]; "x" peptide experiment c, CHO, 2 hours incubation of 20 μl lysate): 13467; CAT levels relative to Lipofectamine (CHO cells [1]; Experiment 3, CHO, 5 μl): ~18%; CAT levels relative to Transfectam (CHO cells [1]; Experiment 3, CHO, 5 μl): approximately 54%; CAT activity (mean) (CHO cells [1]; R1-R4 experiment e, CHO): 8325 cpm; Transfection (CAT) (CHO cells [1]; Table 1, CHO, optimised level of agent): +++; amount giving peak CAT level (Cos 1 cells [7]; Experiment 1, 2.5 mg/ml stock, 10 μl (25 μg)): 10 µL; CAT levels (Cos 1 cells [7]; Experiment 1, 5 μl (12.5 μg) and above, 48 hours): Significant CAT levels; reduction of CAT levels, overnight compared to 6 hour incubation (Cos 1 cells [7]; Experiment 2): approximately 50%; CAT levels (Cos 1 cells [7]; Experiment 2, 10 μl (25 μg) and above): Significant levels of CAT; transfection level relative to Lipofectamine (Cos 1 cells [7]; Experiment 4, Cos 1, 48 hours): approximately 60%; Transfection (CAT) (Cos 1 cells [7]; Table 1, Cos 1, optimised level of agent): +++(+); units β-gal (Cos 1 cells [3]; Table 2, Cos 1, highest reading of 72 conditions): 2.73 × 10^-4 units; β-gal (Cos 1) (Cos 1 cells [3]; Table 3, Cos 1, # tested in a separate experiment): 2.73 × 10^-4; MTS OD490-655 (Cos 1 cells [8]): 1.244; Viability (Cos 1) (Cos 1 cells [8]): 1.24
CCCCCCCCCCCCCC(=O)OCC(CO)(CO)NC(=O)[C@H](C)NC(=O)[C@H](CCCCN)NC(=O)[C@H](CCCCN)NC(=O)[C@@H](N)CCCCN [K3ATM1] (H-KKKA-X3) | 0.69 | 5.85 × 10^-6 units | .69 | 5.85 × 10^-6 | 0.102 | 0.07 | .69 | 5.18 × 10^-6 | 
